Measurements taken from ChEMBL document CHEMBL1201862, “PubChem BioAssay data set” (2004).
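Each compound was tested at five concentrations against cells in 96-well plates for 48 hours. GI50: concentration for 50% inhibition of growth.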 Activity calls are given as the source filed them. Rule as the data show it: active = GI50 up to about 1.1 µM and inactive = higher.

Columns and labels:
Assay in all cases: NCI anticancer screen, dose series, 48 h
[1] = test system: RPMI-8226
[2] = test system: TK-10
[3] = test system: SN12C
[4] = test system: M14
[5] = test system: SK-MEL-5
[6] = test system: COLO 205
[7] = test system: SK-MEL-28
[8] = test system: MOLT-4
[9] = test system: CAKI-1
[10] = test system: SF-539
[11] = test system: CCRF-CEM
[12] = test system: HCT-15
[13] = test system: OVCAR-8
[14] = test system: SNB-75
[15] = test system: NCI-H226
[16] = test system: OVCAR-4
[17] = test system: HOP-62
[18] = test system: A549
[19] = test system: U-251
[20] = test system: ACHN

Structure (SMILES)	GI50 [1]	GI50 [2]	GI50 [3]	GI50 [4]	GI50 [5]	GI50 [6]	GI50 [7]	GI50 [8]	GI50 [9]	GI50 [10]	GI50 [11]	GI50 [12] [µM]	GI50 [13]	GI50 [14]	GI50 [15]	GI50 [16]	GI50 [17]	GI50 [18]	GI50 [19]	GI50 [20]
CCOC(=O)c1nc2cc(C(F)(F)F)ccc2nc1Nc1ccc(F)cc1	6.21 µM (inactive)	73.5 µM (inactive)	> 100 µM (inactive)	49.4 µM (inactive)	47.8 µM (inactive)	97.3 µM (inactive)	> 100 µM (inactive)	> 10 µM (inactive)	> 100 µM (inactive)	19.5 µM (inactive)	19.5 µM (inactive)	37.4	39 µM (inactive)	58.2 µM (inactive)	41.1 µM (inactive)	23.6 µM (inactive)	96.6 µM (inactive)	18 µM (inactive)	24.5 µM (inactive)	
CC(C)/C(Cl)=N\OC(=O)Nc1cccc(Cl)c1	4.45 µM (inactive)	15.3 µM (inactive)	16.1 µM (inactive)	0.305 µM (active)	13.5 µM (inactive)	2.08 µM (inactive)	16.9 µM (inactive)	2.65 µM (inactive)	17.7 µM (inactive)	18.9 µM (inactive)	1.67 µM (inactive)	16.1	15.4 µM (inactive)	13.9 µM (inactive)	20.8 µM (inactive)	13.3 µM (inactive)	> 46 µM (inactive)	18.4 µM (inactive)	18.4 µM (inactive)	6.22 µM (inactive)
CC1=C(NC(=O)C(=O)NNC(=O)c2ccncc2)C(=O)c2ccccc2C1=O	19.5 µM (inactive)	45.2 µM (inactive)	11.8 µM (inactive)	9.84 µM (inactive)	1.98 µM (inactive)	17.3 µM (inactive)	17.3 µM (inactive)	20.8 µM (inactive)	22.8 µM (inactive)	17.2 µM (inactive)	20 µM (inactive)	12.4	18.4 µM (inactive)	17.4 µM (inactive)	14.2 µM (inactive)	13.8 µM (inactive)	17.5 µM (inactive)	13.6 µM (inactive)	9.04 µM (inactive)	16.1 µM (inactive)
CCOC(=O)C(=O)Nc1ccccc1C	> 100 µM (inactive)	> 100 µM (inactive)	> 100 µM (inactive)	> 100 µM (inactive)	> 100 µM (inactive)	> 100 µM (inactive)	> 100 µM (inactive)	> 100 µM (inactive)	> 100 µM (inactive)	> 100 µM (inactive)	> 100 µM (inactive)	> 100	> 100 µM (inactive)	> 100 µM (inactive)	> 100 µM (inactive)	> 100 µM (inactive)	> 100 µM (inactive)	> 100 µM (inactive)	> 100 µM (inactive)	> 100 µM (inactive)
COc1cc([C@@H]2c3cc4c(cc3[C@@H](NCc3cccc(C#N)c3)C3COC(=O)[C@@H]32)OCO4)cc(OC)c1O (some centres undefined)	1.2 µM (inactive)	2.39 µM (inactive)	0.448 µM (active)	1.64 µM (inactive)	2.02 µM (inactive)	2.99 µM (inactive)	3.32 µM (inactive)	0.0386 µM (active)	1 µM (active)	0.326 µM (active)	0.224 µM (active)	1.17	1.43 µM (inactive)	1.06 µM (active)	0.225 µM (active)	68.7 µM (inactive)	0.439 µM (active)	0.0815 µM (active)	0.303 µM (active)	0.305 µM (active)
NC(=O)c1ccc[n+](C2=C([N-]S(=O)(=O)c3ccccc3)C(=O)c3ccccc3C2=O)c1	26.2 µM (inactive)	20.4 µM (inactive)	16.9 µM (inactive)	15.7 µM (inactive)	5.51 µM (inactive)	12.8 µM (inactive)	16 µM (inactive)	25.2 µM (inactive)	22.1 µM (inactive)	18 µM (inactive)	42.6 µM (inactive)	23.3	14.9 µM (inactive)	14.4 µM (inactive)	14.7 µM (inactive)	1.17 µM (inactive)	17.9 µM (inactive)	19.3 µM (inactive)	15.1 µM (inactive)	13.4 µM (inactive)
NC(=O)c1cn(Cc2ccccc2)c(=O)n1Cc1ccccc1	> 100 µM (inactive)	> 100 µM (inactive)	> 100 µM (inactive)	> 100 µM (inactive)	> 100 µM (inactive)	> 100 µM (inactive)	> 100 µM (inactive)	> 100 µM (inactive)	> 100 µM (inactive)	> 100 µM (inactive)	> 100 µM (inactive)	> 100	> 100 µM (inactive)	> 100 µM (inactive)	> 100 µM (inactive)	> 100 µM (inactive)	> 100 µM (inactive)	> 100 µM (inactive)	> 100 µM (inactive)	> 100 µM (inactive)
